Data as given in US20170121344A1 (Siga Technologies, Inc., priority 2009, published 2017).

test system: Dengue-2 (Strain New Guinea C); assay: Viral yield assay against Dengue-2 in Vero cells; format: cell-based, Dengue virus; settings: Dengue virus, DENV2, Vero, 48 h, read-out: Activity (EC50 in μM) DENV-2
Method in brief: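 Progeny virus from compound-treated Vero monolayers infected at an MOI of 0.1 is collected after 48 h at 37° C and titered on Vero cells. DMSO serves as control.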

Compound | EC50 [µM]
COc1cccc(-c2ccc3c(N)c(C(=O)Nc4ccc(C(C)=O)cc4)sc3n2)c1 [Compound 513, N-(4-acetylphenyl)-3-amino-6-(3-methoxyphenyl)thieno[2,3-b]pyridine-2-carboxamide] | < 5
Cc1ccc2c(N)c(C(=O)Nc3ccccc3C(F)(F)F)sc2n1 [Compound 418, 3-amino-6-methyl-N-[2-(trifluoromethyl)phenyl]thieno[2,3-b] pyridine-2-carboxamide] | 5 to 25

same assay, conditions: Dengue virus, DENV2; viral yield assay, Vero cells, MOI 0.1, 48 hours post infection; read-out: Activity (EC50 in μM) DENV-2

Compound | EC50 [µM]
COc1cccc(-c2ccc3c(N)c(C(=O)Nc4ccc(F)cc4Cl)sc3n2)c1 [Compound 557, 3-amino-N-(2-chloro-4-fluoro-phenyl)-6-(3-methoxyphenyl)thieno[2,3-b] pyridine-2-carboxamide] | < 5
Cc1ccc(-c2ccc3c(N)c(C(=O)Nc4cccc(C)c4)sc3n2)cc1 [Compound 644, 3-amino-N-(m-tolyl)-6-(p-tolyl)thieno[2,3-b]pyridine-2-carboxamide] | < 5
Nc1c(C(=O)NC2CCCCC2)sc2nc3c(cc12)CCCCC3 [Compound 281, 3-amino-N-cyclohexyl-6,7,8,9-tetrahydro-5H-cyclohepta[b]thieno [3,2-e]pyridine-2-carboxamide] | 5 to 25
O=C1CN(c2cccc(C(F)(F)F)c2)C(=O)c2sc3nc(-c4cccs4)ccc3c2N1 [Compound 320] | < 5
Cc1ccc(-c2ccc3c(N)c(C(=O)Nc4ccccc4F)sc3n2)cc1 [Compound 649, 3-amino-N-(2-fluorophenyl)-6-(p-tolyl) thieno[2,3-b]pyridine-2-carboxamide] | < 5
Cc1ccc(-c2ccc3c(N)c(C(=O)Nc4ccc(F)cc4)sc3n2)cc1 [Compound 640, 3-amino-N-(4-fluorophenyl)-6-(p-tolyl) thieno[2,3-b]pyridine-2-carboxamide] | < 5
Cc1cc(C)c2c(C)c(C(=O)N3CCc4ccccc4C3)sc2n1 [Compound 408, 3,4-dihydro-1H-isoquinolin-2-yl-(3,4,6-trimethylthieno[2,3-b]pyridin-2-yl) methanone] | > 25
CCNC(=O)c1cccc(NC(=O)c2sc3nc(C)cc(C)c3c2C)c1 [Compound 402, N-[3-(ethylcarbamoyl)phenyl]-3,4,6-trimethyl-thieno[2,3-b]pyridine-2-carboxamide] | > 25
O=C(Nc1cccc(C(F)(F)F)c1)c1sc2ncccc2c1OCc1ccc(Cl)c(Cl)c1 [Compound 377, 3-[(3,4-dichlorophenyl)methoxy]-N-[3-(trifluoromethyl)phenyl]thieno[2,3-b] pyridine-2-carboxamide] | < 5
Nc1c(C(=O)Nc2ccncc2)sc2nc(-c3cccs3)ccc12 [Compound 357, 3-amino-N-(4-pyridyl)-6-(2-thienyl)thieno [2,3-b]pyridine-2-carboxamide] | < 5
CC(C)(C)NC(=O)c1sc2nc3c(cc2c1N)CCCCC3 [Compound 283, 3-amino-N-(tert-butyl)-6,7,8,9-tetrahydro-5H-cyclohepta[b]thieno [3,2-c]pyridine-2-carboxamide] | < 5
CCOc1ccccc1NC(=O)c1sc2nc(-c3ccc(F)cc3)ccc2c1N [Compound 606, 3-amino-N-(2-ethoxyphenyl)-6-(4-fluorophenyl)thieno[2,3-b]pyridine-2-carboxamide] | < 5
Nc1c(C(=O)Nc2cccc(C(F)(F)F)c2)sc2ncccc12 [Compound 420, 3-amino-N-[3-(trifluoromethyl)phenyl] thieno[2,3-b]pyridine-2-carboxamide] | < 5
Nc1c(C(=O)Nc2ccc(Cl)cc2Cl)sc2nc(-c3ccc4c(c3)OCO4)ccc12 [Compound 537, 3-amino-6-(1,3-benzodioxol-5-yl)-N-(2,4-dichlorophenyl)thieno[2,3-b]pyridine-2-carboxamide] | < 5
COc1cccc(-c2ccc3c(N)c(C(=O)Nc4cc(OC)c(OC)c(OC)c4)sc3n2)c1 [Compound 520, 3-amino-6-(3-methoxyphenyl)-N-(3,4,5-trimethoxyphenyl)thieno[2,3-b]pyridine-2-carboxamide] | < 5
Cc1nc(C)c(-c2ccc3c(N)c(C(=O)Nc4cccc(C(F)(F)F)c4)sc3n2)s1 [Compound 318, 3-amino-6-(2,4-dimethylthiazol-5-yl)-N-[3-(trifluoromethyl)phenyl]thieno[2,3-b]pyridine-2-carboxamide] | < 5
Nc1c(C(=O)Nc2ccc(C(=O)O)cc2)sc2nc(-c3ccc(Cl)cc3)ccc12 [Compound 334, 4-[[3-amino-6-(4-chlorophenyl)thieno [2,3-b]pyridine-2-carbonyl]amino] benzoic acid] | < 5
CCc1cccc(NC(=O)c2sc3nc(-c4ccc5c(c4)OCO5)ccc3c2N)c1 [Compound 592, 3-amino-6-(1,3-benzodioxol-5-yl)-N-(3-ethylphenyl)thieno[2,3-b]pyridine-2-carboxamide] | < 5

same assay, conditions: Dengue virus, Vero, 48 h, read-out: Activity (EC50 class) against Dengue-2 Virus in Vero cells

Compound | EC50 [µM]
CCc1nnc(NC(=O)c2sc3nc(-c4cccs4)cc(C(F)(F)F)c3c2N)s1 [Compound 90, 3-Amino-6-thiophen-2-yl-4-trifluoromethyl-thieno[2,3-b]pyridine-2-carboxylic acid (5-ethyl-[1,3,4]thiadiazol-2-yl)-amide] | 5 to 25
COc1ccc(NC(=O)c2sc3nc(C)cc(C)c3c2N)cc1 [Compound 163, 3-Amino-4,6-dimethyl-thieno[2,3-b]pyridine-2-carboxylic acid (4-methoxy-phenyl)-amide] | > 25
CCN1CCc2nc3sc(C(=O)Nc4cccnc4Cl)c(N)c3cc2C1 [Compound 41, 3-Amino-6-ethyl-5,6,7,8-tetrahydro-thieno[2,3-b][1,6]naphthyridine-2-carboxylic acid (2-chloro-pyridin-3-yl)-amide] | < 5
CC(C)Cc1ccc2c(N)c(C(=O)Nc3ccccc3)sc2n1 [Compound 206, 3-Amino-6-isobutyl-thieno[2,3-b]pyridine-2-carboxylic acid phenylamide] | > 25
COCc1cc(C)nc2sc(C(=O)Nc3ccc(Br)c(Cl)c3)c(N)c12 [Compound 197, 3-Amino-4-methoxymethyl-6-methyl-thieno[2,3-b]pyridine-2-carboxylic acid (4-bromo-3-chloro-phenyl)-amide] | > 25

same assay, conditions: Dengue virus; Vero cells, MOI 0.1, harvested 48 hours post infection; read-out: Activity (EC50 class) against Dengue-2 Virus in Vero cells

Compound | EC50 [µM]
COc1ccc(-c2ccc3c(N)c(C(=O)NC(C)C)sc3n2)cc1 [Compound 101, 3-Amino-6-(4-methoxy-phenyl)-thieno[2,3-b]pyridine-2-carboxylic acid isopropylamide] | 5 to 25
N#Cc1c(N)nc2sc(C(=O)Nc3ccc(Br)cc3)c(N)c2c1-c1ccco1 [Compound 6, 3,6-Diamino-5-cyano-4-furan-2-yl-thieno[2,3-b]pyridine-2-carboxylic acid (4-bromo-phenyl)-amide] | < 5
CCc1nnc(NC(=O)c2sc3nc4c(cc3c2N)CCCC4)s1 [Compound 92, 3-Amino-5,6,7,8-tetrahydro-thieno[2,3-b]quinoline-2-carboxylic acid (5-ethyl-[1,3,4]thiadiazol-2-yl)-amide] | 5 to 25
CCOC(=O)c1cc2c(N)c(C(=O)Nc3cccc(C(F)(F)F)c3)sc2nc1N [Compound 75, 3,6-Diamino-2-(3-trifluoromethyl-phenylcarbamoyl)-thieno[2,3-b]pyridine-5-carboxylic acid ethyl ester] | 5 to 25
NC(=O)c1sc2nc(-c3ccccc3)ccc2c1N [Compound 161, 3-Amino-6-phenyl-thieno[2,3-b]pyridine-2-carboxylic acid amide] | > 25
CN1CCc2nc3sc(C(=O)NCCc4c[nH]c5ccccc45)c(N)c3cc2C1 [Compound 32, 3-Amino-6-methyl-5,6,7,8-tetrahydro-thieno[2,3-b][1,6]naphthyridine-2-carboxylic acid [2-(1H-indol-3-yl)-ethyl]-amide] | < 5
CCN(CC)c1ccc(NC(=O)c2sc3nc4c(cc3c2N)CN(C)CC4)cc1 [Compound 276, 3-Amino-6-methyl-5,6,7,8-tetrahydro-thieno[2,3-b][1,6]naphthyridine-2-carboxylic acid (4-diethylamino-phenyl)-amide] | > 25
Cc1ccc(NC(=O)c2sc3nc4c(cc3c2N)CCCCC4)cc1 [Compound 175, 3-Amino-6,7,8,9-tetrahydro-5H-1-thia-10-aza-cyclohepta[f]indene-2-carboxylic acid p-tolylamide] | > 25
CN1CCc2nc3sc(C(=O)Nc4ccccc4)c(N)c3c(-c3cccs3)c2C1 [Compound 34, 3-Amino-6-methyl-4-thiophen-2-yl-5,6,7,8-tetrahydro-thieno[2,3-b][1,6]naphthyridine-2-carboxylic acid phenylamide] | < 5
Nc1c(C(=O)Nc2ccc([N+](=O)[O-])cc2)sc2nc(-c3cccs3)cc(C(F)(F)F)c12 [Compound 221, 3-Amino-6-thiophen-2-yl-4-trifluoromethyl-thieno[2,3-b]pyridine-2-carboxylic acid (4-nitro-phenyl)-amide] | > 25
Cc1cc(NC(=O)c2sc3nc4c(cc3c2N)CN(C)CC4)on1 [Compound 264, 3-Amino-6-methyl-5,6,7,8-tetrahydro-thieno[2,3-b][1,6]naphthyridine-2-carboxylic acid (3-methyl-isoxazol-5-yl)-amide] | > 25
Nc1c(C(=O)N2CCCCC2)sc2nc(-c3cccs3)cc(C(F)(F)F)c12 [Compound 189, (3-Amino-6-thiophen-2-yl-4-trifluoromethyl-thieno[2,3-b]pyridin-2-yl)-piperidin-1-yl-methanone] | > 25
CC(C)NC(=O)c1sc2nc3c(cc2c1N)CN(C)CC3 [Compound 270, 3-Amino-6-methyl-5,6,7,8-tetrahydro-thieno[2,3-b][1,6]naphthyridine-2-carboxylic acid isopropylamide] | > 25
